This assay deals with human, KCNT1 (Homo sapiens (Human), UniProt Q5JUK3). As to the kind of experiment: FLIPR Tl/K Flux Assay. The format is cell-based. To be noted: HEK293 cells stably expressing human KCNT1; Tl+ flux stimulated with EC80 of agonist Loxapine. Summed up: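 HEK293 cells stably expressing human KCNT1 were loaded with FLIPR potassium dye in HEPES/HBSS pH 7.4 with 5 mM probenecid, 1 h at 25 °C, then given test compound for 30 min at 25 °C. Tl+ flux was triggered with chloride-free buffer containing Tl+ and EC80 loxapine and read 160 s. IC50 came from Hill fits of % inhibition.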
Chain of human, KCNT1 (Q5JUK3 whole entry): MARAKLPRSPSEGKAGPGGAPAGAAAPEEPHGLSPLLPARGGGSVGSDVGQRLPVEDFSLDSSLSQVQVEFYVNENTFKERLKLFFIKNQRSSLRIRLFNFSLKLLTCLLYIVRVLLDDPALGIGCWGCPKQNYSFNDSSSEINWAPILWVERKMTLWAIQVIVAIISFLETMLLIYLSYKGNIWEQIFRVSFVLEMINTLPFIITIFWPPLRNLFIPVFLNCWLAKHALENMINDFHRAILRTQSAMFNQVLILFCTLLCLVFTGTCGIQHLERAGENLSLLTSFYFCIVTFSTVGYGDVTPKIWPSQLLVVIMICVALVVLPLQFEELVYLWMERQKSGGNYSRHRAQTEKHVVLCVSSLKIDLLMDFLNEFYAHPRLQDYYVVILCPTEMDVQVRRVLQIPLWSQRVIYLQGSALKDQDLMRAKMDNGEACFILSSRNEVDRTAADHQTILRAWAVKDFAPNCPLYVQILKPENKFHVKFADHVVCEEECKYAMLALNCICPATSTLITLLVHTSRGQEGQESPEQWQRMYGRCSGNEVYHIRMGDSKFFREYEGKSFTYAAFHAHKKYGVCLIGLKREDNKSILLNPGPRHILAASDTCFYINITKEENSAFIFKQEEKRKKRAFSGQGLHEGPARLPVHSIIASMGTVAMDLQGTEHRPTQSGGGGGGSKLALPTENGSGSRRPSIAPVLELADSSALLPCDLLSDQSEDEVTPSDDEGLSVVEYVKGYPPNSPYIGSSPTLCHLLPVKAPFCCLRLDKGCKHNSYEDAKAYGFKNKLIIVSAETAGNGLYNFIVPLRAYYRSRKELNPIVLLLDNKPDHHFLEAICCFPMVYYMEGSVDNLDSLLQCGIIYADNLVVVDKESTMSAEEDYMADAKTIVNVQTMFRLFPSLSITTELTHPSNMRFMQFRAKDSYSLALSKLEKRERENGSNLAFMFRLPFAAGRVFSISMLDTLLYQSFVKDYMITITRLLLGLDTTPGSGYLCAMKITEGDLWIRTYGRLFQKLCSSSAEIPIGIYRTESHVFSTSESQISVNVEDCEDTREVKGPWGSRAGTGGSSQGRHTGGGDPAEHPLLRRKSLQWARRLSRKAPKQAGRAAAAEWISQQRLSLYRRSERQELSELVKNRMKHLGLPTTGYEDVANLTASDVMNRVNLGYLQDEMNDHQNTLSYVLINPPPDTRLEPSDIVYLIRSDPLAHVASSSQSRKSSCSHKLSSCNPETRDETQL
The term IC50 denotes the concentration that gives 50% inhibition. Take `COc1cc(-c2cc3n(n2)CC[C@@H]3NC(=O)c2cn(C(F)(F)F)nc2C)ccn1` [Compound I-240a, (S)-N-(2-(2-Methoxypyridin-4-yl)-5,6-dihydro-4H-pyrrolo[1,2-b]pyrazol-4-yl)-3-methyl-1-(trifluoromethyl)-1H-pyrazole-4-carboxamide]: the IC50 was below 0.25 µM.

As to `Cn1nc(C(F)(F)F)cc1C(=O)N[C@@H]1CCc2nn(-c3ccnc(C(C)(F)F)c3)cc21` [Compound I-77b], the IC50 fell in the range of 0.5 to 1 µM.

Consider `Cc1cnc(C(F)(F)F)cc1-c1cc2n(n1)CC[C@H]2NC(=O)c1cc(C(F)(F)F)nn1C` [Compound I-472b], for which the IC50 was above 1 µM.

`O=C(N[C@H]1CCn2nc(-c3ccnc(C(F)(F)F)c3)cc21)C12CC(Cl)(C1)C2` [Compound I-490a, (S)-3-Chloro-N-(2-(2-(trifluoromethyl)pyridin-4-yl)-5,6-dihydro-4H-pyrrolo[1,2-b]pyrazol-4-yl)bicyclo[1.1.1]pentane-1-carboxamide] displayed an IC50 below 0.25 µM.

In turn, `Cn1nc(C(F)(F)F)nc1C(=O)N[C@@H]1CCn2nc(-c3cc(C(F)(F)F)ncc3Cl)cc21` [Compound I-481b] showed an IC50 of 0.25 to 0.5 µM.

Consider `COc1cc(C(=O)N[C@H]2CCc3cnc(-c4ccnc(C(F)(F)F)c4)cc32)ccn1` [Compound I-196a, (S)-2-Methoxy-N-(3-(2-(trifluoromethyl)pyridin-4-yl)-6,7-dihydro-5H-cyclopenta[c]pyridin-5-yl)isonicotinamide], for which the half-inhibitory concentration (IC50) lay within 0.5 to 1 µM.

Compound `O=C(N[C@H]1CCCn2nc(-c3ccnc(C(F)(F)F)c3)cc21)c1cc2cccnn2c1` [Compound I-442a] returned a 50% inhibitory concentration (IC50) below 0.25 µM.

Consider `N#Cc1cccc(C(=O)NC2CCCCC3OC(c4ccnc(C(F)(F)F)c4)=NC23)c1` (stereo not shown) [Compound I-477], for which the IC50 is below 0.25 µM.

Take `Cc1cnc(C(F)(F)F)cc1-n1cc2c(n1)CC[C@@H]2NC(=O)c1cccc(C#N)c1` [Compound I-235a, (S)-3-Cyano-N-(2-(5-methyl-2-(trifluoromethyl)pyridin-4-yl)-2,4,5,6-tetrahydrocyclopenta[c]pyrazol-4-yl)benzamide]: the IC50 is below 0.25 µM.

Regarding `O=C(N[C@H]1CCn2nc(-c3ccnc(C(F)(F)F)c3)cc21)c1cnc(C(F)(F)F)cn1` [Compound I-571a, (S)-5-(Trifluoromethyl)-N-(2-(2-(trifluoromethyl)pyridin-4-yl)-5,6-dihydro-4H-pyrrolo[1,2-b]pyrazol-4-yl)pyrazine-2-carboxamide], the IC50 was below 0.25 µM.

Compound `Cn1nc(C(F)(F)F)cc1C(=O)NC1CCc2nn(-c3ccnc(C(F)(F)F)c3)cc21` (racemic) [Compound I-1, (rac)-1-Methyl-3-(trifluoromethyl)-N-(2-(2-(trifluoromethyl)pyridin-4-yl)-2,4,5,6-tetrahydrocyclopenta[c]pyrazol-4-yl)-1H-pyrazole-5-carboxamide] came in with an IC50 below 0.25 µM.

In the case of `CC(C)c1cc(C(=O)N[C@H]2CCCn3nc(-c4ccnc(C(F)(F)F)c4)cc32)n(C)n1` [Compound I-350a], the IC50 is below 0.25 µM.

In turn, `O=C(N[C@@H]1CCCc2nc(-c3ccnc(C(F)(F)F)c3)oc21)c1cncc(C(F)(F)F)n1` [Compound I-510b] returned an IC50 above 1 µM.

Compound `N#Cc1cccc(C(=O)N[C@H]2CCCc3nn(-c4ccnc(C(F)(F)F)c4)cc32)c1` [Compound I-112a, (S)-3-Cyano-N-(2-(2-(trifluoromethyl)pyridin-4-yl)-4,5,6,7-tetrahydro-2H-indazol-4-yl)benzamide] gave an IC50 below 0.25 µM.

For `N#Cc1cc(F)cc(C(=O)N[C@H]2CCCn3nc(-c4ccnc(C(F)(F)F)c4)cc32)c1` [Compound I-320a, (S)-3-Cyano-5-fluoro-N-(2-(2-(trifluoromethyl)pyridin-4-yl)-4,5,6,7-tetrahydropyrazolo[1,5-a]pyridin-4-yl)benzamide], the IC50 is below 0.25 µM.

Compound `N#Cc1cccc(C(=O)N[C@H]2CCCCc3oc(-c4ccnc(C(F)(F)F)c4)nc32)c1` [Compound I-160a, (S)-3-cyano-N-(2-(2-(trifluoromethyl)pyridin-4-yl)-5,6,7,8-tetrahydro-4H-cyclohepta[d]oxazol-4-yl)benzamide] returned an IC50 below 0.25 µM.

On to `O=C(N[C@H]1CCCc2oc(-c3ccnc(C4CC4)c3)nc21)c1cncc(C(F)(F)F)c1` [Compound I-137a, (S)-N-(2-(2-Cyclopropylpyridin-4-yl)-4,5,6,7-tetrahydrobenzo[d]oxazol-4-yl)-5-(trifluoromethyl)nicotinamide], for which the IC50 is below 0.25 µM.

In turn, `CC(C)c1cc(-n2cc3c(n2)CC[C@H]3NC(=O)c2cc(C(F)(F)F)nn2C)ccn1` [Compound I-70b] displayed an IC50 above 1 µM.

`Cc1nn(C(F)(F)F)cc1C(=O)N[C@H]1CCn2nc(-c3ccnc(C4CC4)c3)cc21` [Compound I-555a, (S)-N-(2-(2-Cyclopropylpyridin-4-yl)-5,6-dihydro-4H-pyrrolo[1,2-b]pyrazol-4-yl)-3-methyl-1-(trifluoromethyl)-1H-pyrazole-4-carboxamide] came in with an IC50 below 0.25 µM.

With `O=C(N[C@H]1CCn2nc(-c3ccnc(C(F)(F)F)c3)cc21)c1cn(C(F)(F)F)nc1C(F)F` [Compound I-484a, (S)-3-(Difluoromethyl)-1-(trifluoromethyl)-N-(2-(2-(trifluoromethyl)pyridin-4-yl)-5,6-dihydro-4H-pyrrolo[1,2-b]pyrazol-4-yl)-1H-pyrazole-4-carboxamide], the IC50 is below 0.25 µM.

As for `Cn1nc(OC2CC2)cc1C(=O)N[C@H]1CCCn2nc(-c3ccnc(C(F)(F)F)c3)cc21` [Compound I-370a], the IC50 was below 0.25 µM.

`COc1cc(C(=O)N[C@@H]2CCCCn3nc(-c4cc(C(F)(F)F)ncc4F)cc32)ccn1` [Compound I-517b] came in with an IC50 of 0.5 to 1 µM.

Compound `COc1nc(C(=O)N[C@H]2CCn3nc(-c4ccnc(C(F)(F)F)c4)cc32)n(C)n1` [Compound I-210a, (S)-3-Methoxy-1-methyl-N-(2-(2-(trifluoromethyl)pyridin-4-yl)-5,6-dihydro-4H-pyrrolo[1,2-b]pyrazol-4-yl)-1H-1,2,4-triazole-5-carboxamide] came in with an IC50 below 0.25 µM.

The compound `Cc1ccn2ncc(C(=O)N[C@H]3CCCn4nc(-c5ccnc(C(F)(F)F)c5)cc43)c2n1` [Compound I-440a] registered a concentration for half-maximal inhibition (IC50) of 0.5 to 1 µM.

Compound `O=C(N[C@H]1CCCCc2nn(-c3ccnc(C4CC4)c3)cc21)c1cccc(C(F)(F)F)c1` [Compound I-60a] returned an IC50 below 0.25 µM.

The compound `O=C(N[C@H]1CCCc2oc(-c3ccnc(C4CC4)c3)nc21)c1cn(C(F)(F)F)nc1C(F)F` [Compound I-505a, (S)—N-(2-(2-Cyclopropylpyridin-4-yl)-4,5,6,7-tetrahydrobenzo[d]oxazol-4-yl)-3-(difluoromethyl)-1-(trifluoromethyl)-1H-pyrazole-4-carboxamide] gave an IC50 below 0.25 µM.

In turn, `Cn1nc(C(F)(F)F)cc1C(=O)N[C@@H]1CCc2nn(-c3ccnc(C4CC4)c3)cc21` [Compound I-71b] had an IC50 of 0.5 to 1 µM.

`Cn1nc(C(F)(F)F)cc1C(=O)N[C@H]1CCCc2cnc(-c3ccnc(C(F)(F)F)c3)cc21` [Compound I-116a] showed an IC50 below 0.25 µM.

`N#Cc1cccc(C(=O)NC2CCCn3cc(-c4ccnc(C(F)(F)F)c4)cc32)c1` (single isomer, unassigned) [I-309*] showed an IC50 below 0.25 µM.

In turn, `O=C(N[C@H]1CCCc2nc(-c3ccnc(C(F)(F)F)c3)oc21)c1ccnc(OC(F)(F)F)c1` [Compound I-186a, (S)-2-(Trifluoromethoxy)-N-(2-(2-(trifluoromethyl)pyridin-4-yl)-4,5,6,7-tetrahydrobenzo[d]oxazol-7-yl)isonicotinamide] came in with an IC50 below 0.25 µM.

`O=C(N[C@H]1CCCn2nc(-c3ccnc(C(F)(F)F)c3)cc21)c1cnn2cc(F)ccc12` [Compound I-408a] came in with an IC50 below 0.25 µM.

The compound `COc1cc(-c2cc3n(n2)CCC[C@@H]3NC(=O)c2cc(Cl)cc(C(F)(F)F)c2)ccn1` [Compound I-354a] gave an IC50 below 0.25 µM.

For `Cn1nc(C(F)(F)F)cc1C(=O)N[C@H]1CCc2nn(-c3ccnc(C4CC4)c3)cc21` [Compound I-71a], the IC50 is below 0.25 µM.

As to `COc1cc(-c2cc3n(n2)CC[C@@H]3NC(=O)c2cc(F)cc(Cl)c2)ccn1` [Compound I-253a, (S)-3-Chloro-5-fluoro-N-(2-(2-methoxypyridin-4-yl)-5,6-dihydro-4H-pyrrolo[1,2-b]pyrazol-4-yl)benzamide], the IC50 is below 0.25 µM.

`O=C(N[C@H]1CCCn2nc(-c3ccnc(C(F)(F)F)c3)cc21)c1cnn(CC(F)(F)F)c1` [Compound I-435a] showed an IC50 above 1 µM.

`CCc1cc(C#N)cc(C(=O)N[C@H]2CCCn3nc(-c4ccnc(C(F)(F)F)c4)cc32)c1` [Compound I-245a, (S)-3-Cyano-5-ethyl-N-(2-(2-(trifluoromethyl)pyridin-4-yl)-4,5,6,7-tetrahydropyrazolo[1,5-a]pyridin-4-yl)benzamide] came in with an IC50 below 0.25 µM.

Consider `Cn1nc(C(F)(F)F)cc1C(=O)N[C@H]1CCCc2c1nc(-c1ccnc(C(F)(F)F)c1)n2C` [Compound I-247a, (S)-1-Methyl-N-(1-methyl-2-(2-(trifluoromethyl)pyridin-4-yl)-4,5,6,7-tetrahydro-1H-benzo[d]imidazol-4-yl)-3-(trifluoromethyl)-1H-pyrazole-5-carboxamide], for which the 50% inhibitory concentration (IC50) was above 1 µM.

As for `COc1cc(-c2cc3n(n2)CC[C@H]3NC(=O)c2cc(F)cc(F)c2)ccn1` [Compound I-447b], the IC50 is below 0.25 µM.

For `COc1cc(C(=O)N[C@H]2CCCn3nc(-c4ccnc(C(F)(F)F)c4)nc32)ccn1` [Compound I-214a, (S)-2-Methoxy-N-(2-(2-(trifluoromethyl)pyridin-4-yl)-5,6,7,8-tetrahydro-[1,2,4]triazolo[1,5-a]pyridin-8-yl)isonicotinamide], the IC50 is below 0.25 µM.

`CCOc1cc(C(=O)N[C@H]2CCCCn3nc(-c4ccnc(C(F)(F)F)c4)cc32)ccn1` [Compound I-283a, (S)-2-Ethoxy-N-(2-(2-(trifluoromethyl)pyridin-4-yl)-5,6,7,8-tetrahydro-4H-pyrazolo[1,5-a]azepin-4-yl)isonicotinamide] displayed an IC50 below 0.25 µM.

The record behind these values is US20250313548A1 (Actio Biosciences, Inc., priority 2023, published 2025).
